ChEMBL document CHEMBL1201862, “PubChem BioAssay data set” (2004)
Calls of active or inactive are those of the source. Cut-off read from the data, not from the text of the source, for most assays here: actives have a measured EC50 and inactives only a lower limit.

Columns and labels:
[1] = Luminescence Cell-Based Dose Retest to Confirm Inhibitors of Cancer Stem Cells. [Related pubchem assays (depositor defined):AID2717, AID2721]; type: functional, Homo sapiens; conditions: Homo sapiens
[2] = inhibitors of SNCA 5'UTR-driven reporter translation, confirmation, H4 neuroglioma cells, luminescence (AID 1988); type: functional, cell-based
[3] = tested on: Streptococcus sp. 'group A'; assay: growth inhibition of control SK(-) GAS strain, dose response, counter-screen for streptokinase expression inhibitor project, luminescence, kanamycin, BacTiterGlo, confirmation (AID 1900); type: functional, organism-based
Streptokinase A = molecular target: T1, Streptokinase A (Streptococcus pyogenes serotype M1, UniProt P10520); assay: S. pyogenes streptokinase expression inhibitors, potency, dose response, plasminogen activation absorbance, OD405 (AID 1914); type: functional, Streptococcus pyogenes M1 GAS;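 note: secreted streptokinase activity via plasminogen activation per viability signal from cell pellet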
T1 sequence (P10520 whole entry): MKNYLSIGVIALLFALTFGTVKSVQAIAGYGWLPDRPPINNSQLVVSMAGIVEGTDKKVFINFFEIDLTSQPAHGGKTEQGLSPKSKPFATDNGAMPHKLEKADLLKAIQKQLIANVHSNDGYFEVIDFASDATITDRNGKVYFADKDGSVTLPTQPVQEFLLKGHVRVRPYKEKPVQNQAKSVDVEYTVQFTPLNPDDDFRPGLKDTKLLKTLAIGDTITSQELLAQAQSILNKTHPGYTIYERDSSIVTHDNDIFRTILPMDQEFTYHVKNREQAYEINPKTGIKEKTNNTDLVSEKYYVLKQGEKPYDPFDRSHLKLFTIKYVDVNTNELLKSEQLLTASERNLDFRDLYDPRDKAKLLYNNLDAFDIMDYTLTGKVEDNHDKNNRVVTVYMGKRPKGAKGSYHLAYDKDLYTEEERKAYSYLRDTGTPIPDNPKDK

Streptococcus = assay: Group A Streptococcus viability loss, dose response, counter-screen for streptokinase expression inhibitor project, luminescence, BacTiterGlo (AID 1915); type: functional, organism-based;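 note: potency for reduction of bacterial viability or growth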
[4] = molecular target: T2, Heat shock factor protein 1 (Mus musculus, UniProt P38532); assay: HSF1 potentiators in luciferase reporter cells, confirmation, cell-based, NIH3T3, luminescence, dose retest (AID 435004); type: functional;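 note: stress induced by proteasome inhibitor MG132 added 30 min after compound; luciferase reporter driven by HSF1 response element in NIH3T3 cells; actives raise luminescence as potentiators of the MG132 stress response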
T2 sequence (P38532 whole entry): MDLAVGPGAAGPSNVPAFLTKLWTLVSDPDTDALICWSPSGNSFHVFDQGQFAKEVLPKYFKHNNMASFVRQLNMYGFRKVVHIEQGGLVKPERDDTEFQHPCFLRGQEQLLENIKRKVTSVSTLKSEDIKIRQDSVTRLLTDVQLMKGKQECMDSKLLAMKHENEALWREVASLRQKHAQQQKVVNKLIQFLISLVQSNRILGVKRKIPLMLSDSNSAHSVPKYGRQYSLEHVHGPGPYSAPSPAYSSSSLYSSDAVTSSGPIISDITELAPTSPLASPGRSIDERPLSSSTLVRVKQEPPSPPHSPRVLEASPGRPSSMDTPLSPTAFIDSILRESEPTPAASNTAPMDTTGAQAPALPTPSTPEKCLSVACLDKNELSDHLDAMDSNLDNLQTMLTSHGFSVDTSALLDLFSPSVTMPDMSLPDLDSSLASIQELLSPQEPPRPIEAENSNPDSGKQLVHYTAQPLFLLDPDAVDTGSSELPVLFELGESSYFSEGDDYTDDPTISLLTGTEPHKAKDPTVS

Cytochrome P450 2C9 = Cytochrome P450 2C9 (Homo sapiens, UniProt P11712)
[5] = NIH-3T3 fibroblast cytotoxicity, dose response, cytotoxicity control, cell-based, fluorescence, Alamar Blue, secondary assay (AID 2327); type: functional;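 note: NIH-3T3 mouse fibroblasts cultured with fluconazole at 8 µg/mL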
[6] = Luminescence Cell-Based Dose Response HTS to Identify Activators of Luciferase Translation or Activity in H4 […] Cells. [Related pubchem assays: 1829 (Project Summary), 1814 (Primary HTS)]; type: functional
H4 = assay: Luminescence Cell-Based Dose Response HTS to Identify Activators of 5'UTR Stem-Loop Driven Prion Protein mRNA Translation in H4 Neuroglioblastoma Cells. [Related pubchem assays: 1829 (Project Summary), 1814 (Primary HTS)]; type: functional; conditions: Homo sapiens
INS1 = assay: beta cell apoptosis inhibitors, cytokine rescue, dose response, luminescence, retest (AID 449756); type: functional, cell-based; conditions: Rattus norvegicus;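 note: cell death triggered by IL-1 beta plus TNF-alpha plus IFN-gamma mixture; protective hits raise ATP signal compared with cytokine alone wells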
Cytochrome P450 1A2 = molecular target: T3, Cytochrome P450 1A2 (Homo sapiens, UniProt P05177);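 note: PubChem cytochrome P450 panel assay, CYP1A2 panel member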
T3 sequence (P05177 whole entry): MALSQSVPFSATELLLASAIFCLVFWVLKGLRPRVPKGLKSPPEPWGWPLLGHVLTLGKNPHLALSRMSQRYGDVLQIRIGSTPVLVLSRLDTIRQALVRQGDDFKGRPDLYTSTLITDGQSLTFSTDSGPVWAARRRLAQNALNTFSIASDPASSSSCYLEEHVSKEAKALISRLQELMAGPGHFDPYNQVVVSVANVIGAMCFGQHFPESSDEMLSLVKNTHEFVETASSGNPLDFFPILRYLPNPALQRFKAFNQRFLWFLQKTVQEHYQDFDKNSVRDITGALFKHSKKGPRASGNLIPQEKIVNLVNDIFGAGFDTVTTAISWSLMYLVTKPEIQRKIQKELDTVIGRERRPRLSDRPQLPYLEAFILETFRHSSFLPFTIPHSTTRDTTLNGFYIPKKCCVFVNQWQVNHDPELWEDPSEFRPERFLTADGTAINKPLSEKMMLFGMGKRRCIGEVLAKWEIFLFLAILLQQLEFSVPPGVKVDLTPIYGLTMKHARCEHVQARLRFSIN

Sequence of Cytochrome P450 2C9 (P11712 whole entry): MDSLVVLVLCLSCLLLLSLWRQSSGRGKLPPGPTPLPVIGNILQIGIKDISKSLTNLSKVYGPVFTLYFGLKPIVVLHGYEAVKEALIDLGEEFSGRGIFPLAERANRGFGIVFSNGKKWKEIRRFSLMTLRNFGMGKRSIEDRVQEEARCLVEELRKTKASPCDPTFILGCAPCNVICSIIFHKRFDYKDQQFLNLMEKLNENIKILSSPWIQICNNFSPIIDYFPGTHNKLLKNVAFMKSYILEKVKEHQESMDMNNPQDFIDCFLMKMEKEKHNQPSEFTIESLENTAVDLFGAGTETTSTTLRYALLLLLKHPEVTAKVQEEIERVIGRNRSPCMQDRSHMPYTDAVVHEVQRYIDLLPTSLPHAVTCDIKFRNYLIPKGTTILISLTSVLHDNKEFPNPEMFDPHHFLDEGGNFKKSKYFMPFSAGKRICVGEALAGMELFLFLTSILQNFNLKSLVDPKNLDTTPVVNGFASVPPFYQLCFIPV

SMILES	AC50 [1]	EC50 [4]	further results
NC(=O)CC(NC(=O)Cc1cccc2ccccc12)c1ccc(NC2CCCCCCC2)c([N+](=O)[O-])c1 (stereo unspecified)	14.1 µM (active)		
CC(C)COc1ccc2[nH]c3c(c2c1)CCCC3=O			EC50 [2]: 10.6 µM (active)
O=c1cc(N2CCCCC2)c(-c2ccccc2)nn1Cc1ccc(Cl)cc1Cl	1.65 µM (active)		EC50 [3]: 3.19 µM (active); EC50 (Streptokinase A): > 150 µM (not active); EC50 (Streptococcus): 8.6 µM (active)
Cn1c(N)c(C(=O)COC(=O)c2ccccc2C(=O)c2ccc(Cl)c([N+](=O)[O-])c2)c(=O)n(C)c1=O	4.25 µM (active)		
COc1ccc(-n2nc3c(N4CCC(C(=O)NCCc5ccccc5C)CC4)nnc(C)c3c2C)cc1	4.03 µM (active)		
CN1/C(=C\C(=O)Nc2ccc(Br)cc2)C(C)(C)c2ccccc21	5.09 µM (active)		
CN1CCN(Cc2c(O)ccc3cc(Br)ccc23)CC1		11.2 µM (active)	
COc1cc(OC)cc(-c2nnc(SCC(=O)N(Cc3ccccc3)C(C)(C)C)o2)c1	0.618 µM (active)		
Cc1ccc(CSc2nc3ccccc3c(=O)n2CCCC(=O)NCc2ccco2)cc1		> 260 µM (inactive)	
CCc1cc2c(SCC#N)ncnc2s1		> 260 µM (inactive)	
CC(O)CC(C(=O)NNc1ccccc1)C(=O)NNc1ccccc1 (stereo unspecified)	0.489 µM (active)		
O=C(Nc1cc(C(F)(F)F)ccc1N1CCCCC1)c1ccc(Br)o1	4.94 µM (active)		AC50 (Cytochrome P450 2C9): 1.41 µM (inconclusive)
C=CCNC(=O)c1c(N)n(Cc2ccco2)c2nc3ccccc3nc12		43.4 µM (active)	
COc1ccc2[nH]c(C)c(CCNc3ccc(C(F)(F)F)cc3[N+](=O)[O-])c2c1		> 260 µM (inactive)	
O=c1c2ccccc2[nH]c(=S)n1CCC1=CCCCC1		> 260 µM (inactive)	
FC(F)(F)c1ccc(Sc2nnc(-c3cccs3)n2CC2CCCO2)nc1 (stereo unspecified)		> 260 µM (inactive)	
CCCc1nc2oc3cc(OC)ccc3c(=O)c2c(=O)n1CCc1ccccc1		> 260 µM (inactive)	
CCCOC(=O)c1ccc(Oc2c[nH]nc2-c2ccc(O)cc2O)cc1		> 260 µM (inactive)	EC50 [3]: > 150 µM (not active); EC50 (Streptokinase A): > 150 µM (not active); EC50 (Streptococcus): > 150 µM (not active)
CCC(NC(=O)/C(=C\c1ccc2c(c1)OCO2)NC(C)=O)C(=O)O (stereo unspecified)		> 260 µM (inactive)	
Clc1ccc(-c2c[n+](Cc3ccc(Br)cc3)c3n2CCCCC3)cc1			EC50 [5]: > 150 µM (inconclusive)
COc1ccc(C2N(C(=O)CN3CCCC3)CCCN2S(=O)(=O)c2ccccc2)cc1 (stereo unspecified)		> 260 µM (inactive)	
COc1ccc(NC(=O)COC(=O)/C=C/C(=O)OCC(=O)Nc2ccc(OC)c(Cl)c2)cc1Cl		6.53 µM (active)	
COc1cccc(C=O)c1OCCCOc1cccc2cccnc12			EC50 [6]: 16.4 µM (active); EC50 (H4): 28.1 µM (active)

SMILES	AC50 [1]	EC50 [4]	further results
O=C1c2ccccc2C(=O)N1CCC(=O)N1CCCc2ccccc21		> 260 µM (inactive)	
COc1ccc(-c2cn(Cc3ccc(C(=O)c4ccccc4)cc3)nn2)cc1			EC50 [6]: 90.4 µM (active); EC50 (H4): 21.2 µM (active); AC50 (INS1): 9.37 µM (active)
Cc1nc(S(=O)(=O)c2ccc(Cl)cc2)c(NCc2ccccc2)o1		> 260 µM (inactive)	
CC[C@@H]1CC=C[C@H]2[C@H]1C(=O)N(Cc1ccccc1)[C@H]2c1ccc(OC)c(Cl)c1	6.12 µM (active)		EC50 [3]: 6.67 µM (active); EC50 (Streptokinase A): 4.05 µM (active); EC50 (Streptococcus): 16 µM (active)
COC(=O)Cn1c2ccc(OC)cc2c2nc(C)sc21		> 260 µM (inactive)	
O=C(/C(=C\c1ccccc1)c1nc2ccccc2[nH]1)c1ccc(Cl)cc1	3.28 µM (active)		
O=C(Nc1ccc(Cl)cc1)Nc1csc([N+](=O)[O-])c1		31.4 µM (active)	AC50 (INS1): 7.03 µM (active)
O=C(CN1C(=O)NC2(CCCC2)C1=O)NCCN1C(=O)S/C(=C\c2ccccc2F)C1=O		> 260 µM (inactive)	
Cc1ccc(S(=O)(=O)c2c(C)cc(C)nc2N2CCCCC2)cc1		> 260 µM (inactive)	
Cc1cc(C)c(OCCCCN2CCNCC2)c(C)c1	3.23 µM (active)		
Cc1c(C(=O)N2CCOCC2)sc2nc(-c3ccccc3)cn12			EC50 [6]: 3.66 µM (active); EC50 (H4): 28.8 µM (active)
CC(Oc1ccc(Cl)cc1)C(=O)/C=C/N(C)C (stereo unspecified)		> 260 µM (inactive)	AC50 (Cytochrome P450 1A2): 15.8 µM (inconclusive)
CC(C)c1ccc(C2NC(=O)c3ccccc3O2)cc1 (stereo unspecified)		21.2 µM (active)	
COc1ccc(-c2sc3ccccc3c2-c2ccc(O)cc2)cc1	3.35 µM (active)		
O=C(CN1c2ccccc2S(=O)(=O)c2ccccc21)NCc1ccc(F)cc1		> 260 µM (inactive)	
CCOC(=O)N1CCN(C(=O)CS(=O)(=O)c2cn(Cc3ccc(F)cc3)c3ccccc23)CC1		> 260 µM (inactive)	
CCN(CC)S(=O)(=O)c1cccc(C(=O)N/N=C/c2cccc(O)c2O)c1	8.97 µM (active)		
O=c1cc(-c2ccccc2)[nH]n1-c1nc2ccccc2s1	2.45 µM (active)		EC50 [3]: 2.43 µM (active); EC50 (Streptokinase A): > 150 µM (not active); EC50 (Streptococcus): 10.3 µM (active)
COc1ccc(/C=N/NC(=O)c2cc(C34CC5CC(CC(C5)C3)C4)[nH]n2)cc1O	1.16 µM (active)		
CNc1c(NS(=O)(=O)c2ccc(F)c(Cl)c2)c(=O)oc2ccccc12		> 260 µM (inactive)	
COc1ccc2cc(/C=N/NC(=O)c3ccc(CN(c4cccc(Cl)c4Cl)S(C)(=O)=O)cc3)c(Cl)nc2c1	< 0.16 µM (active)		
CC(C)=CCCC1(C)C=Cc2c(ccc3c2[nH]c2cc(O)c(C)cc23)O1 (stereo unspecified)	2.9 µM (active)		EC50 [3]: 2.31 µM (active); EC50 (Streptococcus): 6.72 µM (active)
